From patent US12673039B2, “Methods of inducing autophagy using coumarin derivatives and related compounds” (Buck Institute for Research on Aging, priority 2019, dated 2026)

test system: TFEB; test: TFEB activation screen, % activation/control at 24 and 48 hrs (Table 1); type: cell-based, human; conditions: Homo sapiens, 24 h
Procedure: FIG. 25, panels A-B::AIC106 identified as a lead compound in a TFEB-transcription based screen. Panel A) Rat Neuronal N27 cells were transfected with a vector construct driving expression of secreted-Gaussia luciferase (Sec-Gaussia) in control of 2 kb human TFEB promoter. Next day, cells were seeded into 96-well cell culture plate and exposed to compounds (30 μM) from natural product library (NPL-640) or DMSO-control. After 24 and 48 hours of compound treatment supernatant from the cells was collected and TFEB promoter activity determined by quantifying luciferase activity. Panel B) Effects of AIC106 treatment on HLH-30 expression after 24 hours treatment were determined by immunoblot against GFP in young adult stage of GFP-tagged HLH-30 strain (MAH235) following total protein extraction.
It was discovered that small structural alterations in the C1 compound can have significant effects on the degree of TFEB activation (see, e.g., FIG. 17) the screening systems described herein identified a number of structures related to C1 that similarly induce TFEB.
In vitro drug screening studies. […] We utilized for these studies a 3000 compound natural product derivative library (Timtec, Newark, DE) in […] transfected with a sensitive TFEB promotor-Gaussian luciferase construct. […] C1 is a coumarin-related compound, part of a family of natural benzopyrones found in many edible plants.
To identify novel transcriptional inducers of TFEB, we transfected rat neuronal N27 cells with a vector driving expression of secreted-luciferase under control of the human TFEB promoter. […] AIC106 belongs to a family of coumarin compounds containing an active benzopyrone ring.

| Compound | activity at 30 µM |
| --- | --- |
| O=C(O)c1ccccc1-c1c2ccc(=O)cc-2oc2cc(O)ccc12 [A2] | 293% |
| O=c1oc2cc(O)ccc2c(Cc2ccc(Cl)cc2)c1-c1ccccc1 [A3] | 324% |
| Cc1cc2oc(=O)c(-c3ccc(Cl)cc3Cl)c(-c3ccccc3)c2cc1Cl [A4] | 361% |
| Cc1cc2oc(=O)c(-c3ccccc3)c(-c3ccccc3)c2cc1Cl [A5] | 62.3% |
| Cc1cc2oc(=O)c(-c3ccccc3Cl)c(-c3ccccc3)c2cc1Cl [A6] | 76.6% |
| O=c1oc2c(Br)cc(Cl)cc2c(-c2ccccc2)c1-c1ccc(Br)cc1 [B2] | 331% |
| O=c1oc2ccccc2c(-c2ccccc2)c1-c1ccc(Cl)cc1Cl [B3] | 338% |
| Cc1ccc2c(-c3ccccc3)c(-c3ccc(Br)cc3)c(=O)oc2c1 [B4] | 390% |
| O=c1oc2ccc(Cl)cc2c(-c2ccccc2)c1-c1ccc(Cl)cc1Cl [B5] | 83.2% |
| Cc1ccc2oc(=O)c(-c3ccc(Cl)cc3Cl)c(-c3ccc(Cl)cc3)c2c1 [B6] | 91.2% |
| O=c1oc2cc(O)ccc2c(-c2ccccc2)c1-c1ccccc1 [C2] | 311% |
| O=c1oc2cc(O)cc(-c3ccccc3)c2cc1-c1ccccc1Cl [C3 ST081388] | 317% |
| CC(C)(C)OC(=O)C1Cc2cc3c4c(c2OC1=O)CCCN4CCC3 (centres unmarked) [C3 ST083673] | 328% |
| O=c1oc2ccc(Br)cc2c(-c2ccc(Cl)cc2)c1-c1ccc(Cl)cc1Cl [C4] | 432% |
| O=c1oc2c(Cl)cc(Cl)cc2c(-c2ccccc2)c1-c1ccccc1 [C5] | 87.2% |
| O=c1oc2c(Cl)cc(Cl)cc2c(-c2ccc(Cl)cc2)c1-c1ccccc1 [C6] | 104% |
| O=C(O)C1Cc2cc3c4c(c2CC1=O)CCCN4CCC3 (centres unmarked) [D2] | 336% |
| COc1ccc(-c2c(-c3ccccc3)c3ccc(O)cc3oc2=O)c(Cl)c1OC [D3] | 381% |
| O=c1oc2ccc(Cl)cc2c(-c2ccccc2)c1-c1ccccc1Cl [D4] | 369% |

| Compound | activity at 30 µM |
| --- | --- |
| Cc1cc2oc(=O)c(-c3ccc(Cl)cc3)c(-c3ccc(Cl)cc3)c2cc1Cl [D5] | 103% |
| Cc1cc2oc(=O)c(-c3ccc(Cl)cc3Cl)c(-c3ccc(Cl)cc3)c2cc1Cl [D6] | 360% |
| O=c1oc2ccc(Br)cc2c(-c2ccccc2)c1-c1ccccc1Cl [E3] | 347% |
| C=CCOc1ccc2c(-c3ccccc3)c(-c3cccc(Br)c3)c(=O)oc2c1 [E4] | 400% |
| O=c1oc2ccc(Br)cc2c(-c2ccccc2)c1-c1ccc(Br)cc1 [E5] | 92.5% |
| O=CC1Cc2cc3c4c(c2OC1=O)CCCN4CCC3 (centres unmarked) [E6] | 367% |
| COc1ccc(-c2c(-c3ccccc3)c3ccc(O)cc3oc2=O)c(Cl)c1 [F2] | 341% |
| O=c1oc2ccc(Br)cc2c(-c2ccccc2Cl)c1-c1cccc(Cl)c1 [F3] | 302% |
| O=c1oc2ccc(Br)cc2c(-c2ccccc2)c1-c1cccc(Cl)c1 [F4] | 365% |
| O=c1oc2c(Cl)cc(Cl)cc2c(-c2ccccc2)c1-c1ccc(Cl)cc1Cl [F5] | 105% |
| O=c1oc2cc(O)ccc2c(Cc2ccccc2)c1-c1ccccc1 [G2] | 341% |
| O=c1oc2ccc(Br)cc2c(-c2ccc(Cl)cc2)c1-c1ccc(Cl)cc1 [G3] | 365% |
| Cc1cc2oc(=O)c(-c3ccc(Br)cc3)c(-c3ccccc3)c2cc1Cl [G4] | 390% |
| O=c1oc2ccccc2c(-c2ccccc2)c1-c1cccc(Br)c1 [G5] | 65.1% |
| O=c1oc2cc(O)ccc2c(-c2ccccc2)c1-c1cccc(Cl)c1 [H2] | 334% |
| O=c1oc2ccc(Cl)cc2c(-c2ccc(Cl)cc2)c1-c1ccc(Cl)cc1 [H3] | 361% |
| O=c1oc2ccccc2c(-c2ccccc2)c1-c1ccccc1 [H4] | 346% |
| Cc1ccc2oc(=O)c(-c3ccccc3)c(-c3ccccc3)c2c1 [H5] | 70.1% |

molecular target: T1, DAF-12 (Caenorhabditis elegans, UniProt G5EFF5); test: Mammalian one-hybrid DAF-12 activity assay (HEK293T); type: cell-based, human; conditions: compound alone
T1 construct: expressed in transfected cells; host or cells: HEK293T
T1 sequence (G5EFF5 516-753 limits assumed): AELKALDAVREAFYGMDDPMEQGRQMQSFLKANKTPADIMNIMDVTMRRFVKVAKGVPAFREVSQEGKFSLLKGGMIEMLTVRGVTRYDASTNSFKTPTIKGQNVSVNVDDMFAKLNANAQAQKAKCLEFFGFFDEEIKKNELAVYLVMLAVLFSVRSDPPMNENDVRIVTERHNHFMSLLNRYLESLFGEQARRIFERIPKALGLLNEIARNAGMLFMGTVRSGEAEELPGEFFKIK
Procedure: FIG. 10 illustrates that coumarin 106 (“C1”, “AIC106”) inhibits induction of the worm FXR homologue DAF-12. The ability of C1 (10 μM) to inhibit activation of the FXR worm homologue DAF-12 by its ligand dafachronic acid (Df acid); values are fold activity induction versus untreated controls; ****p<0.01 versus GW; **p<0.05 versus GW.
FIG. 22, panels A-H: AIC106-induced HLH-30 expression is mediated by the nuclear hormone receptor DAF-12. Panel A) The upstream promoter region (2 kB) of hlh-30 was analyzed by JASPAR CORE database to determine DAF-12 binding sites (1: SEQ ID NO:1, 2: 1: SEQ ID NO:2, 3: SEQ ID NO:3, 4: SEQ ID NO:4, 5: SEQ ID NO:5, 6: SEQ ID NO:6, 7: SEQ ID NO:7, 8: SEQ ID NO:8, 9: SEQ ID NO:9, 10: SEQ ID NO:10, 11: SEQ ID NO:11, 12: SEQ ID NO:12). Panel B) Relative fold change in mRNA of hlh-30 compared to DMSO-control was quantified using qRT-PCR in young adult wild-type N2 and daf-12(rh61rh411) worms post-24 hours treatment with AIC106. [N=3 independent experiments (mean±SD). **p<0.01, by one-way ANOVA with Sidak's multiple comparisons test]. Panel C) Effects of AIC106 on DAF-12 activity was determined in a mammalian one-hybrid assay by quantifying changes in the luciferase activity of DAF-12 ligand (dafachronic acid, DA) induced treatment. [N=3 independent experiments (mean±SD). *p<0.05 **p<0.01 and ***p<0.001, by one-way ANOVA with Tukey's multiple comparisons test]. Panel D) Schematic diagram showing that addition of AIC106 or inhibition of DAF-12 ligand synthesis, which leads to un-liganded DAF-12 may result in enhanced HLH-30 expression. Panel E) Dafadine-A (DFA), a specific inhibitor of key enzyme required for synthesis of DAF-12 ligand induces HLH-30 expression. Immunoblot for GFP was performed on protein lysate of HLH-30; GFP (MAH235) young adult worms treated with DFA or DMSO-control for 24 hours. Panel F) Protection against mitochondrial toxin (FCCP) was determined by quantifying survival of young adult worms treated 24 hours with DFA or DMSO-control. [N=3 independent experiments (mean±SD). **p<0.01, by two-way ANOVA with Tukey's multiple comparisons test]. Panel G) Motor function in day-7 NL5901 worms were quantified by scoring number of thrashes for an individual worm over the period of 30 seconds (dots) in DFA and DMSO-control treatment. [N=3 independent experiments (mean±SD). **p<0.01, by unpaired t-test] […] [N=3 independent experiments (mean±SD). *p<0.05, by one-way ANOVA with Tukey's multiple comparisons test].
FIG. 29, panels A-C: AIC106 modulates DAF-12 activity. […] Luciferase activity was measured to quantify DAF-12 activity. Panel C) Dose dependent increase in DAF-12 activity after treatment with known DAF-12 ligand, dafachronic acid (DA) was determined by quantifying luciferase activity. […]

| Compound | DAF-12 activity (luciferase) |
| --- | --- |
| dafachronic acid [reference compound] | increase DAF-12 activity in a dose dependent manner |
